# Data taken from patent publication US20070066801A1 (priority 2003, published 2007).
# Assays:
# [1] = system: F. tularensis LVS; format: binding, Francisella tularensis
# [2] = system: F. novicida; format: binding, Francisella novicida
# [3] = system: F. tularensis LVS; format: binding, Francisella tularensis; remark: listed apart in the source
# [4] = system: F. philomiragia; format: binding, Francisella philomiragia
# [5] = system: F. novicida; format: binding, Francisella novicida; remark: listed apart in the source
# [6] = system: F. philomiragia; format: binding, Francisella philomiragia; remark: listed apart in the source
# [7] = system: Staphylococcus aureus (ATCC 6538); format: binding
# [8] = system: Enterococcus hirae (ATCC 8043); format: binding
# [9] = system: E. coli DH5α; format: binding
Sequence,ratio of phage binding to F. tularensis LVS compared to F. philomiragia [1],effect of added peptide on binding of phage 4-4-2 to F. novicida [2],effect of trypsin digestion of the bacterial surface on phage binding to F. tularensis LVS [3],effect of trypsin digestion of the bacterial surface on phage binding to F. philomiragia [4],phage binding to F. novicida in 0.1×PBS [5],ratio of phage binding to F. novicida compared to F. philomiragia [5],phage binding to F. philomiragia in 0.1×PBS [6],phage binding to F. tularensis LVS in 0.1×PBS [1],further results
LPISNPLPIKRS [SEQ ID NO: 3],no specific binding,–,–,–,–,–,–,–,–
"SLFWTIPIPSFR [p442S, reference compound]",–,did not inhibit the binding of phage 4-4-2,–,–,–,–,–,–,–
"TGRHTPWPHFMP [OV1, reference compound]",approximately equal binding,–,increase in binding after trypsin treatment,increase in binding after trypsin treatment,Neither phage expressing peptides having the sequence of SEQ ID NO: 2 (phage 4-4-2) or SEQ ID NO: 4 (OV1 negative control) bound,approximately equal binding,Neither phage expressing peptides having the sequence of SEQ ID NO: 2 (phage 4-4-2) or SEQ ID NO: 4 (OV1 negative control) bound,Neither phage expressing peptides having the sequence of SEQ ID NO: 2 (phage 4-4-2) or SEQ ID NO: 4 (OV1 negative control) bound,phage binding to F. novicida in Tris-Mg buffer [5]: equal to or greater than the binding of phage 4-4-2; phage binding to F. philomiragia in 1×PBS buffer [6]: equal to the binding of phage 4-4-2; phage binding to F. philomiragia in Tris-Mg buffer [6]: equal to or greater than the binding of phage 4-4-2
TSITPWFFLSRP [p442],–,decreased binding of phage 4-4-2,–,–,–,–,–,–,–
TSITPWFFLSRP [phage 4-4-2],> 100 fold,–,distinct trypsin sensitivity,small but reproducible increase in binding,Neither phage expressing peptides having the sequence of SEQ ID NO: 2 (phage 4-4-2) or SEQ ID NO: 4 (OV1 negative control) bound,> 100 fold,Neither phage expressing peptides having the sequence of SEQ ID NO: 2 (phage 4-4-2) or SEQ ID NO: 4 (OV1 negative control) bound,Neither phage expressing peptides having the sequence of SEQ ID NO: 2 (phage 4-4-2) or SEQ ID NO: 4 (OV1 negative control) bound,"phage binding to F. tularensis LVS after trypsin digestion, relative to no trypsin [3]: 10-20%; level of binding to S. aureus, fold lower than phage binding to F. novicida and F. tularensis LVS [7]: 20-100 fold; level of binding to E. hirae, fold lower than phage binding to F. novicida and F. tularensis LVS [8]: 20-100 fold; amount of phage binding to F. novicida in 1×PBS buffer (versus Tris-Mg) [5]: increased; effect of growth on TSB (versus Chamberlain minimal medium) on phage binding to F. novicida [5]: stimulated binding; binding specificity of phage in Tris-Mg buffer [1]: showed specificity for the identification of F. tularensis LVS; effect of growth on TSB (versus Chamberlain minimal medium) on phage binding to F. tularensis LVS [1]: stimulatory effect observed with F. tularensis LVS was not as great; number of phage binding F. tularensis LVS in 1×PBS buffer (versus Tris-Mg) [1]: not decreased significantly; level of binding to E. coli, fold lower than phage binding to F. novicida and F. tularensis LVS [9]: 20-100 fold"
